Assay results reported in ChEMBL document CHEMBL1201861, “Genomics of Drug Sensitity in Cancer screening data, Wellcome Trust Sanger Institute”.

Legend:
Experiment in all cases: cells
[1] = tested on: LB831-BLC; assay type: functional, cell-based, Homo sapiens; settings: Homo sapiens, LB831-BLC;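 also: growth inhibition of LB831-BLC cells, read out with a cell viability assay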
Description: SANGER: Inhibition of human LB831-BLC cell growth in a cell viability assay.

[2] = tested on: LXF-289 cell line; assay type: functional, cell-based; settings: Homo sapiens
Description: SANGER: Inhibition of human LXF-289 cell growth in a cell viability assay.

[3] = tested on: J-RT3-T3-5; assay type: functional, cell-based, Homo sapiens; settings: Homo sapiens, J-RT3-T3-5;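 also: cell viability assay measuring growth inhibition of human J-RT3-T3-5 cells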
Description: SANGER: Inhibition of human J-RT3-T3-5 cell growth in a cell viability assay.

[4] = tested on: KM12; assay type: functional, cell-based, Homo sapiens; settings: Homo sapiens, KM12;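 also: KM12 cell growth inhibition, read out with a cell viability assay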
Description: SANGER: Inhibition of human KM12 cell growth in a cell viability assay.

[5] = tested on: SK-PN-DW; assay type: functional, cell-based, Homo sapiens; settings: Homo sapiens, SK-PN-DW;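 also: growth inhibition measured with a viability assay on these cells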
Description: SANGER: Inhibition of human SK-PN-DW cell growth in a cell viability assay.

[6] = tested on: UACC-257; assay type: functional, cell-based, Homo sapiens; settings: Homo sapiens, UACC-257
Description: SANGER: Inhibition of human UACC-257 cell growth in a cell viability assay.

[7] = tested on: GI-ME-N; assay type: functional, cell-based, Homo sapiens; settings: Homo sapiens, GI-ME-N;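 also: growth inhibition of human GI-ME-N cells, read out with a cell viability assay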
Description: SANGER: Inhibition of human GI-ME-N cell growth in a cell viability assay.

[8] = tested on: TE-10; assay type: functional, cell-based, Homo sapiens; settings: Homo sapiens, TE-10;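 also: growth inhibition of TE-10 cells, measured by a cell viability assay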
Description: SANGER: Inhibition of human TE-10 cell growth in a cell viability assay.

[9] = tested on: RCC10RGB; assay type: functional, cell-based, Homo sapiens; settings: Homo sapiens, RCC10RGB;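 also: growth inhibition of human RCC10RGB cells, read out by a cell viability assay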
Description: SANGER: Inhibition of human RCC10RGB cell growth in a cell viability assay.

[10] = tested on: HD-MY-Z; assay type: functional, cell-based, Homo sapiens; settings: Homo sapiens, HD-MY-Z;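 also: growth inhibition of HD-MY-Z cells, read out with a cell viability assay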
Description: SANGER: Inhibition of human HD-MY-Z cell growth in a cell viability assay.

[11] = tested on: NCI-H23; assay type: functional, cell-based, Homo sapiens; settings: Homo sapiens, NCI-H23;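 also: cell viability assay measuring growth inhibition of NCI-H23 cells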
Description: SANGER: Inhibition of human NCI-H23 cell growth in a cell viability assay.

[12] = tested on: COLO-829; assay type: functional, cell-based, Homo sapiens; settings: Homo sapiens, COLO-829
Description: SANGER: Inhibition of human COLO-829 cell growth in a cell viability assay.

[13] = tested on: HL-60; assay type: functional, cell-based, Homo sapiens; settings: Homo sapiens, HL-60;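 also: growth inhibition of human HL-60 cells, read out with a cell viability assay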
Description: SANGER: Inhibition of human HL-60 cell growth in a cell viability assay.

[14] = tested on: GR-ST; assay type: functional, cell-based, Homo sapiens; settings: Homo sapiens, GR-ST
Description: SANGER: Inhibition of human GR-ST cell growth in a cell viability assay.

[15] = tested on: CCRF-CEM; assay type: functional, cell-based, Homo sapiens; settings: Homo sapiens, CCRF-CEM;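 also: inhibition of CCRF-CEM cell growth, measured by a cell viability assay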
Description: SANGER: Inhibition of human CCRF-CEM cell growth in a cell viability assay.

[16] = tested on: MOLT-4; assay type: functional, cell-based, Homo sapiens; settings: Homo sapiens, MOLT-4;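 also: growth inhibition of MOLT-4 cells, determined with a cell viability readout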
Description: SANGER: Inhibition of human MOLT-4 cell growth in a cell viability assay.

[17] = tested on: SJSA-1; assay type: functional, cell-based, Homo sapiens; settings: Homo sapiens, SJSA-1;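 also: growth inhibition of human SJSA-1 cells, read out through a cell viability measurement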
Description: SANGER: Inhibition of human SJSA-1 cell growth in a cell viability assay.

[18] = tested on: MV4-11; assay type: functional, cell-based, Homo sapiens, MV-4-11; settings: Homo sapiens, MV4-11;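 also: cell viability readout measuring growth inhibition of human MV-4-11 cells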
Description: SANGER: Inhibition of human MV-4-11 cell growth in a cell viability assay.

[19] = tested on: SK-N-DZ; assay type: functional, cell-based, Homo sapiens; settings: Homo sapiens, SK-N-DZ; read-out: IC50;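 also: growth inhibition of the cancer cell line, read out through a viability assay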
Description: SANGER: Inhibition of human SK-N-DZ cell growth in a cell viability assay.

[20] = tested on: D283 Med; assay type: functional, cell-based, Homo sapiens; settings: Homo sapiens, D283 Med
Description: SANGER: Inhibition of human D-283MED cell growth in a cell viability assay.

[21] = tested on: CW-2; assay type: functional, cell-based, Homo sapiens; settings: Homo sapiens, CW-2;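 also: growth inhibition of CW-2 cells, read out by a cell viability assay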
Description: SANGER: Inhibition of human CW-2 cell growth in a cell viability assay.

[22] = tested on: EKVX; assay type: functional, cell-based, Homo sapiens; settings: Homo sapiens, EKVX;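 also: growth inhibition of human EKVX cells, read out with a cell viability assay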
Description: SANGER: Inhibition of human EKVX cell growth in a cell viability assay.

[23] = tested on: ONS-76; assay type: functional, cell-based, Homo sapiens; settings: Homo sapiens, ONS-76;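 also: growth inhibition of human ONS-76 cells, read out with a cell viability assay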
Description: SANGER: Inhibition of human ONS-76 cell growth in a cell viability assay.

[24] = tested on: MHH-NB-11; assay type: functional, cell-based, Homo sapiens; settings: Homo sapiens, MHH-NB-11;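 also: growth inhibition of human MHH-NB-11 cells, read out by a cell viability assay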
Description: SANGER: Inhibition of human MHH-NB-11 cell growth in a cell viability assay.

[25] = tested on: K5; assay type: functional, cell-based, Homo sapiens; settings: Homo sapiens, K5
Description: SANGER: Inhibition of human K5 cell growth in a cell viability assay.

[26] = tested on: NCI-H1650; assay type: functional, cell-based, Homo sapiens; settings: Homo sapiens, NCI-H1650;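 also: growth inhibition of human NCI-H1650 cells measured by a cell viability assay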
Description: SANGER: Inhibition of human NCI-H1650 cell growth in a cell viability assay.

[27] = tested on: BB49-HNC; assay type: functional, cell-based, Homo sapiens; settings: Homo sapiens, BB49-HNC;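 also: cell viability assay read-out, reported as inhibition of BB49-HNC cell growth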
Description: SANGER: Inhibition of human BB49-HNC cell growth in a cell viability assay.

[28] = tested on: KALS-1; assay type: functional, cell-based, Homo sapiens; settings: Homo sapiens, KALS-1; read-out: IC50;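 also: growth inhibition of KALS-1 cells, determined with a cell viability assay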
Description: SANGER: Inhibition of human KALS-1 cell growth in a cell viability assay.

[29] = tested on: NEC8; assay type: functional, cell-based, Homo sapiens; settings: Homo sapiens, NEC8;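 also: growth inhibition of human NEC8 cells, read out by a cell viability assay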
Description: SANGER: Inhibition of human NEC8 cell growth in a cell viability assay.

[30] = tested on: PSN1; assay type: functional, cell-based, Homo sapiens; settings: Homo sapiens, PSN1;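 also: suppression of growth of human PSN1 cells, read out by a cell viability assay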
Description: SANGER: Inhibition of human PSN1 cell growth in a cell viability assay.

[31] = tested on: RPMI-8226; assay type: functional, cell-based, Homo sapiens; settings: Homo sapiens, RPMI-8226
Description: SANGER: Inhibition of human RPMI-8226 cell growth in a cell viability assay.

[32] = tested on: AM-38; assay type: functional, cell-based, Homo sapiens; settings: Homo sapiens, AM-38;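 also: growth inhibition of AM-38 cells of human origin, read out by a cell viability assay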
Description: SANGER: Inhibition of human AM-38 cell growth in a cell viability assay.

[33] = tested on: KP-N-YS; assay type: functional, cell-based, Homo sapiens; settings: Homo sapiens, KP-N-YS;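 also: cell viability assay measuring inhibition of cell line growth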
Description: SANGER: Inhibition of human KP-N-YS cell growth in a cell viability assay.

[34] = tested on: Lu-65; assay type: functional, cell-based, Homo sapiens; settings: Homo sapiens, Lu-65;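 also: growth inhibition of Lu-65 cancer cells, read out by a cell viability assay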
Description: SANGER: Inhibition of human LU-65 cell growth in a cell viability assay.

[35] = tested on: MHH-PREB-1; assay type: functional, cell-based, Homo sapiens; settings: Homo sapiens, MHH-PREB-1;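 also: cell viability assay measuring inhibition of proliferation of human MHH-PREB-1 cells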
Description: SANGER: Inhibition of human MHH-PREB-1 cell growth in a cell viability assay.

[36] = tested on: KNS-81-FD; assay type: functional, cell-based, Homo sapiens; settings: Homo sapiens, KNS-81-FD;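 also: growth inhibition of KNS-81-FD cells, read out with a cell viability assay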
Description: SANGER: Inhibition of human KNS-81-FD cell growth in a cell viability assay.

[37] = tested on: SK-LMS-1; assay type: functional, cell-based, Homo sapiens; settings: Homo sapiens, SK-LMS-1;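 also: growth inhibition of human SK-LMS-1 cells, read out with a cell viability assay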
Description: SANGER: Inhibition of human SK-LMS-1 cell growth in a cell viability assay.

[38] = tested on: NCI-H720; assay type: functional, cell-based, Homo sapiens; settings: Homo sapiens, NCI-H720;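 also: growth inhibition of human NCI-H720 cells determined by a cell viability assay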
Description: SANGER: Inhibition of human NCI-H720 cell growth in a cell viability assay.

[39] = tested on: NH-12; assay type: functional, cell-based, Homo sapiens; settings: Homo sapiens, NH-12;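 also: growth inhibition of NH-12 cells, read out with a cell viability assay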
Description: SANGER: Inhibition of human NH-12 cell growth in a cell viability assay.

[40] = tested on: KG-1; assay type: functional, cell-based, Homo sapiens; settings: Homo sapiens, KG-1;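 also: growth inhibition of KG-1 cells, read out by a cell viability assay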
Description: SANGER: Inhibition of human KG-1 cell growth in a cell viability assay.

[41] = tested on: HT-144; assay type: functional, cell-based, Homo sapiens; settings: Homo sapiens, HT-144
Description: SANGER: Inhibition of human HT-144 cell growth in a cell viability assay.

[42] = tested on: HCC1187; assay type: functional, cell-based, Homo sapiens; settings: Homo sapiens, HCC1187;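 also: growth inhibition of HCC1187 cells, read out with a cell viability assay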
Description: SANGER: Inhibition of human HCC1187 cell growth in a cell viability assay.

[43] = tested on: LS-1034; assay type: functional, cell-based, Homo sapiens; settings: Homo sapiens, LS-1034
Description: SANGER: Inhibition of human LS-1034 cell growth in a cell viability assay.

[44] = tested on: DEL; assay type: functional, cell-based, Homo sapiens; settings: Homo sapiens, DEL;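 also: growth inhibition of the human DEL cell line, read out with a cell viability assay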
Description: SANGER: Inhibition of human DEL cell growth in a cell viability assay.

[45] = tested on: U-87 MG; assay type: functional, cell-based, Homo sapiens, U-87MG ATCC; settings: Homo sapiens, U-87 MG;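 also: growth inhibition of the cells measured with a viability assay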
Description: SANGER: Inhibition of human U-87-MG cell growth in a cell viability assay.

[46] = tested on: MEG-01; assay type: functional, cell-based, Homo sapiens; settings: Homo sapiens, MEG-01;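 also: growth inhibition of MEG-01 cells, read out by a cell viability assay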
Description: SANGER: Inhibition of human MEG-01 cell growth in a cell viability assay.

What does the source list for `CN(NC(=O)CC(=O)NN(C)C(=S)c1ccccc1)C(=S)c1ccccc1` [ELESCLOMOL]?
IC50 [1]: 27.7 nM; IC50 [2]: 14 nM; IC50 [3]: 14.4 nM; IC50 [4]: > 200 nM; IC50 [5]: 9.02 nM; IC50 [6]: 22 nM; IC50 [7]: > 200 nM; IC50 [8]: > 200 nM; IC50 [9]: > 200 nM; IC50 [10]: 5.91 nM; IC50 [11]: 12.2 nM; IC50 [12]: 43.1 nM; IC50 [13]: 66.8 nM; IC50 [14]: > 200 nM; IC50 [15]: > 200 nM; IC50 [16]: 105 nM; IC50 [17]: 12.3 nM; IC50 [18]: 18 nM; IC50 [19]: 189 nM; IC50 [20]: 40.9 nM; IC50 [21]: > 200 nM; IC50 [22]: 39.5 nM; IC50 [23]: 10.3 nM; IC50 [24]: 69.1 nM; IC50 [25]: 7 nM; IC50 [26]: 30.4 nM; IC50 [27]: 126 nM; IC50 [28]: 96.3 nM; IC50 [29]: 11.5 nM; IC50 [30]: 3.84 nM; IC50 [31]: 46 nM; IC50 [32]: 169 nM; IC50 [33]: 79.9 nM; IC50 [34]: > 200 nM; IC50 [35]: 11.5 nM; IC50 [36]: 17.5 nM; IC50 [37]: > 200 nM; IC50 [38]: 124 nM; IC50 [39]: 134 nM; IC50 [40]: 39.7 nM; IC50 [41]: 13 nM; IC50 [42]: 79.3 nM; IC50 [43]: > 200 nM; IC50 [44]: 19.2 nM; IC50 [45]: > 200 nM; IC50 [46]: 105 nM

With `CO[C@@H]1[C@H](N(C)C(=O)c2ccccc2)C[C@H]2O[C@]1(C)n1c3ccccc3c3c4c(c5c6ccccc6n2c5c31)C(=O)NC4` [MIDOSTAURIN] as the molecule, how does the IC50 [2] read?
Its IC50 is 330 nM.

And the IC50 [4]?
Its IC50 is 92.8 nM.

And the IC50 [34]?
Its IC50 is > 512 nM.

What about the IC50 [37] of the same molecule?
Its IC50 is 353 nM.

Which results are given for `NC(=O)c1ccc(N(C(N)=O)c2c(F)cccc2F)nc1-c1ccc(F)cc1F` [VX-702]?
IC50 [1]: > 2000 nM; IC50 [2]: > 2000 nM; IC50 [3]: > 2000 nM; IC50 [4]: > 2000 nM; IC50 [5]: > 2000 nM; IC50 [6]: 1200 nM; IC50 [7]: > 2000 nM; IC50 [8]: > 2000 nM; IC50 [9]: > 2000 nM; IC50 [10]: > 2000 nM; IC50 [11]: > 2000 nM; IC50 [12]: > 2000 nM; IC50 [13]: > 2000 nM; IC50 [14]: > 2000 nM; IC50 [15]: > 2000 nM; IC50 [16]: > 2000 nM; IC50 [17]: > 2000 nM; IC50 [18]: > 2000 nM; IC50 [19]: > 2000 nM; IC50 [20]: > 2000 nM; IC50 [21]: > 2000 nM; IC50 [22]: > 2000 nM; IC50 [23]: > 2000 nM; IC50 [24]: > 2000 nM; IC50 [25]: 229 nM; IC50 [26]: > 2000 nM; IC50 [27]: > 2000 nM; IC50 [28]: > 2000 nM; IC50 [29]: > 2000 nM; IC50 [30]: > 2000 nM; IC50 [31]: > 2000 nM; IC50 [32]: > 2000 nM; IC50 [33]: > 2000 nM; IC50 [34]: > 2000 nM; IC50 [35]: > 2000 nM; IC50 [36]: > 2000 nM; IC50 [37]: > 2000 nM; IC50 [38]: 16.8 nM; IC50 [39]: > 2000 nM; IC50 [40]: > 2000 nM; IC50 [41]: > 2000 nM; IC50 [42]: > 2000 nM; IC50 [43]: > 2000 nM; IC50 [44]: > 2000 nM; IC50 [45]: > 2000 nM; IC50 [46]: > 2000 nM
